In ChEMBL document CHEMBL3886721, “Thienopyrimidine compounds and use thereof” (2016) one finds IC50 data, which are given here for one compound.

The assay concerns the target T1, Gonadotropin-releasing hormone receptor (Macaca fascicularis, UniProt G7P5Q7).
T1 sequence (G7P5Q7 whole entry): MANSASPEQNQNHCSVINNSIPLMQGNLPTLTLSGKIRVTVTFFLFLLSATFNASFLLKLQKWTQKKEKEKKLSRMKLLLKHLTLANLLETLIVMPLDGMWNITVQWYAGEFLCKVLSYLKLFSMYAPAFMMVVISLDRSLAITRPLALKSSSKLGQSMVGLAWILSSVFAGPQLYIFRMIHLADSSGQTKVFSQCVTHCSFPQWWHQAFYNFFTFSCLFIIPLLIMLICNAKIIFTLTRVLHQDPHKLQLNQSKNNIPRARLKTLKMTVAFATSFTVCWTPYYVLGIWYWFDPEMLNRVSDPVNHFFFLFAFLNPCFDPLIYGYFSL
In words: 125I-Leuprorelin Binding Assay: The monkey and human membrane fractions prepared were diluted with the assay buffer to yield a 200 µg/ml dilution, each of which was then dispensed at 188 μl per tube. To a tube containing the cell membrane fraction of the CHO with monkey GnRH receptors expressed were added 2 μl of a solution of 20 mM compound in 60% DMSO and 10 μl of 38 nM 125I-leuprorelin. To a tube containing the cell membrane fraction of the CHO with human GnRH receptors expressed were added 2 μl of a solution of 2 mM compound in 60% DMSO and 10 μl of 38 nM 125I-leuprorelin. To determine maximum binding quantity, a reaction mixture containing 2 μl of 60% DMSO and 10 μl of 38 nM 125I-leuprorelin was prepared. To determine non-specific binding amount, a reaction mixture containing 2 μl of a solution of 100 μM leuprorelin in 60% DMSO and 10 μl of 38 nM 125I-leuprorelin was prepared.

The IC50 is the concentration that gives 50% inhibition. Take `CCOCCN(C)Cc1c(-c2ccc(NC(=O)NOC)cc2)sc2c1c(=O)n(-c1ccccn1)c(=O)n2Cc1c(F)cccc1F`: the IC50 was found to be 3 nM.
